Data: the NIST ThermoML archive (doi:10.1021/je5001523)

Test: mn = molality of the nth substance listed, in mol/kg
Conditions: 101 kPa, Liquid; for viscosity: Capillary tube (Ostwald / Ubbelohde) method

[Cl-].[Li+] [lithium chloride] + O
Conditions	mass density, 288.15 K [kg/m3]	mass density, 298.15 K [kg/m3]	mass density, 308.15 K [kg/m3]	mass density, 318.15 K [kg/m3]	viscosity, 288.15 K [mPa·s]	viscosity, 298.15 K [mPa·s]	viscosity, 308.15 K [mPa·s]	viscosity, 318.15 K [mPa·s]
m1 = 0.5	1012.05	1009.46	1006.13	1002.07	1.212	0.94	0.76	0.629
m1 = 1	1023.76	1020.94	–	1012.4	1.288	1.002	0.802	0.661
m1 = 2	1045.1	1041.17	1036.24	1031.32	1.444	1.112	0.882	0.724
m1 = 3	1062.67	1057.69	1051.58	1047.47	1.586	1.229	0.962	0.785
